What was measured:
[1] = biological target: T1, Prostaglandin G/H synthase 2 (Homo sapiens, UniProt P35354)
T1 sequence (P35354 whole entry): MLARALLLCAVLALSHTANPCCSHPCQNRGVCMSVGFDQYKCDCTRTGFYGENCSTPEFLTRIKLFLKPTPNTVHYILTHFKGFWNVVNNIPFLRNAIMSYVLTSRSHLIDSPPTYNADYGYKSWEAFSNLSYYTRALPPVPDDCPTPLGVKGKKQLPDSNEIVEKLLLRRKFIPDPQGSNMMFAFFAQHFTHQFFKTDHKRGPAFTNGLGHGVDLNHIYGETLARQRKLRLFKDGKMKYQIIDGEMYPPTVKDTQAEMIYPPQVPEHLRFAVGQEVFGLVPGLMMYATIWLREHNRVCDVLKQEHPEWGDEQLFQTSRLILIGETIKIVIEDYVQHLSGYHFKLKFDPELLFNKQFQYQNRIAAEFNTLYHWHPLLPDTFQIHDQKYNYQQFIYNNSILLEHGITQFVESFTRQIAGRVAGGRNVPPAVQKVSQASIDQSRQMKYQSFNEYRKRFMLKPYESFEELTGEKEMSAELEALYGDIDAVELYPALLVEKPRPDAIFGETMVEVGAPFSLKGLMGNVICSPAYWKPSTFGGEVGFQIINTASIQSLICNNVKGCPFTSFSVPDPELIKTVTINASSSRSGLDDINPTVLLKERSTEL
Description: In vitro inhibitory activity towards human recombinant Prostaglandin G/H synthase 2 enzyme

[2] = biological target: Prostaglandin G/H synthase 1 (Homo sapiens, UniProt P23219)
Prostaglandin G/H synthase 1, sequence (P23219 whole entry): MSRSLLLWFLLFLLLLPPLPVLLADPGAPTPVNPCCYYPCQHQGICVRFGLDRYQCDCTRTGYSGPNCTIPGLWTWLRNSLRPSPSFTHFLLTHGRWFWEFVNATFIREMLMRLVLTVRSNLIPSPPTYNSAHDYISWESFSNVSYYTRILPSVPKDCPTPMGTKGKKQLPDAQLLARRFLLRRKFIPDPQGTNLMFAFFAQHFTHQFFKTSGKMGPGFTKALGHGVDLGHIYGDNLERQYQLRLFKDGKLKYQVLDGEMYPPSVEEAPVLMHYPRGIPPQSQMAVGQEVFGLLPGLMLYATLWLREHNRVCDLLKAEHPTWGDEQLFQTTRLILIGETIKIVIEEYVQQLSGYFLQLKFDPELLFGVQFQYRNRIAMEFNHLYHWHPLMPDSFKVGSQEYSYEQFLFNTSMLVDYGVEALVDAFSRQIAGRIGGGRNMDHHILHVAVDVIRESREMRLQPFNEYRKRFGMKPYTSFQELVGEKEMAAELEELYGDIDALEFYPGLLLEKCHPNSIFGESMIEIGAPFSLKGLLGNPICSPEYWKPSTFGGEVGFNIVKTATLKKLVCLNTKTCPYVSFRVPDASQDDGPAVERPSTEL
Description: In vitro inhibitory activity towards human platelet recombinant Prostaglandin G/H synthase 1

Row | SMILES | IC50 [1] [µM] | IC50 [2] [µM]
1 | Cc1nc(-c2ccc(F)cc2)c(-c2ccc(S(C)(=O)=O)cc2)o1 | 0.07 | 42
2 | CNS(=O)(=O)c1ccc(-c2oc(C)nc2C2CCCCC2)cc1 | 3.1 | > 100
3 | Cc1nc(C2CCCCC2)c(-c2ccc(S(N)(=O)=O)cc2)o1 | – | 47.5
4 | Cc1nc(-c2ccc(F)cc2)c(-c2ccc(S(N)(=O)=O)cc2)o1 | 0.024 | 4.7
5 | CS(=O)(=O)c1ccc(-c2oc(-c3ccccc3)nc2C2CCCCC2)cc1 | > 100 | > 100
6 | Cc1nc(C2CCCCCC2)c(-c2ccc(S(C)(=O)=O)cc2)o1 | – | > 100
7 | Cc1nc(-c2ccccc2)c(-c2ccc(S(C)(=O)=O)cc2)o1 | 0.09 | > 100
8 | Cc1nc(-c2ccc(S(C)(=O)=O)cc2)c(-c2ccc(Cl)s2)o1 | – | 93
9 | Cc1nc(C2CCCC2)c(-c2ccc(S(C)(=O)=O)cc2)o1 | 18 | > 100
10 | Cc1nc(-c2ccc(S(C)(=O)=O)cc2)c(-c2ccc(F)cc2)o1 | 2.1 | > 100
11 | CCc1ccc(-c2nc(C)oc2-c2ccc(S(C)(=O)=O)cc2)s1 | 0.14 | > 100
12 | CCc1nc(C2CCCCC2)c(-c2ccc(S(C)(=O)=O)cc2)o1 | 0.27 | 60
13 | Cc1nc(C2CCCCC2)c(-c2ccc(S(C)(=O)=O)cc2)o1 | – | > 100
14 | CCS(=O)(=O)c1ccc(-c2oc(C)nc2-c2ccc(F)cc2)cc1 | 38 | > 100
